According to US20140272041A1, “METHODS OF REDUCING PATHOGENS DURING PROCESSING OR POST-PROCESSING OF BEEF, POULTRY AND OTHER MEAT PRODUCTS” (BIRKO Corporation, priority 2009, published 2014):
“And” between values parts separate entries of the source, which are not always exact repeats. Equal values may be shown once.

Assays:
Type in all cases: cell-based, Escherichia coli
[1] = system: E. coli ATCC 43888 (O157:H7); assay: Log kill in aqueous bacterial suspension, plating on TSA; conditions: 73 deg. F.
E. coli SAC-2 = assay: Log kill / surviving titer in aqueous bacterial suspension, plating on TSA; conditions: for Log Kill […] Lactic Acid: 75 degrees F.; for Log Kill: sulfate; for cfu per ml: 75 deg. F. (0.00 control 4.18E+07)
Procedure: In each instance a target sample was employed using approximately 50 micro liters of an SAC-2 culture. E. coli “SAC-2,” was a Gram-negative strain isolated from municipal sewage. The tests were performed at room temperature, i.e., 75 deg. F. […] The results of each test sample were evaluated using a series of 10-fold dilutions as needed to determine, on a standard plating agar (TSA), the titer of bacteria that survived the antimicrobial treatment.
The same procedure was employed as in Example 2, but the only agent added to the target solution was Niaproof 08. No lactic acid was employed.
The mixture was then diluted and plated as previously described.
Increasing amounts of reagent were added to a series of test tubes. […] The bacterial titer of each mixture was determined by preparation and plating of serial dilutions on TSA.
[…] […] The amphoteric and zwitterionic surfactants, which carry a net positive charge under the conditions of the reaction mixture, caused enhancement of the log kill by lactic acid. All anionic surfactants tested caused substantial enhancement of the log kill by lactic acid.

E. coli ATCC 12435 = assay: as above; conditions: for cfu per ml: no lactic acid (0.00 control 3.41E+07)
Procedure: The “reaction” (i.e. interaction of antimicrobial agent and the target organism) was initiated by the addition of bacteria to the antimicrobial solution. The reaction was allowed to proceed for the respective time periods listed in Table I (i.e., at least 15 seconds each) and was terminated at the end of that time by adding quench buffer comprising 3.2 M potassium phosphate buffer, pH 7.2. The sample then was evaluated using serial 10-fold dilutions into sterile phosphate buffer as needed to determine, on Tryptic Soy agar (“TSA”), the titer of surviving bacteria. TSA is a medium that allows the growth of most bacteria.
The reduction in the bacterial count is expressed as the “log kill” which is defined as log10 [initial cfu/ml]−log10 [remaining cfu/ml]; where “cfu” refers to “colony forming unit.” All log kills reported herein are positive “base 10.”). Inasmuch as the standard assay mixture contained only ca. 25×10^6 cfu initially (equivalent to 7.398 log) the theoretical maximum kill that can be measured with this assay system is ca. 7.4 log and the practical measuring limit is ca. 6 log. Therefore, high levels of log reduction were monitored by plating reaction mixtures directly (without dilution) onto agar medium. The results are reported in Table I and illustrated in graph format in FIG. 1. […] The tests were replicated with E. coli ATCC 43888, a pathogenic strain of E. coli O157:H7. […]
After incubation for 15 seconds at ambient temperature the reaction was quenched by addition of phosphate buffer and the titer of surviving bacteria was determined by plating on TSA as described in the previous examples. […] The amphoteric and zwitterionic surfactants, which carry a net positive charge under the conditions of the reaction mixture, caused enhancement of the log kill by lactic acid. All anionic surfactants tested caused substantial enhancement of the log kill by lactic acid.

E. coli ATCC 43888 = assay: Reaction mixture streak plate, visual observation; conditions: room temperature
Procedure: The tests were performed at room temperature.

[2] = Niaproof 08 0.02 wt./wt. % in 2.5 wt. % lactic acid
[3] = Niaproof 08 0.04 wt./wt. % in 2.5 wt. % lactic acid
[4] = Niaproof 08 0.06 wt./wt. % in 2.5 wt. % lactic acid
[5] = Niaproof 08 0.10 wt./wt. % in 2.5 wt. % lactic acid

CCCCC(CC)COS(=O)(=O)[O-].[Na+] (centres unmarked) [Niaproof 08, sodium 2-ethylhexyl sulfate]
+Niaproof 08 (Log Kill) ([1]; 2.5% lactic acid + Niaproof 08, pH 2.19, 20 secs.): 5.75 log | +Niaproof 08 (Log Kill) ([1]; 2.5% lactic acid + Niaproof 08, pH 2.42, 20 secs.): 3.17 log | +Niaproof 08 (Log Kill) ([1]; 2.5% lactic acid + Niaproof 08, pH 2.59, 20 secs.): 3.81 log | +Niaproof 08 (Log Kill) ([1]; 2.5% lactic acid + Niaproof 08, pH 2.74, 20 secs.): 4.94 log | +Niaproof 08 (Log Kill) ([1]; 2.5% lactic acid + Niaproof 08, pH 2.86, 20 secs.): 5.01 log | +Niaproof 08 (Log Kill) ([1]; 2.5% lactic acid + Niaproof 08, pH 3.24, 20 secs.): 0 log | +Niaproof 08 (Log Kill) ([1]; 2.5% lactic acid + Niaproof 08, pH 3.67, 20 secs.): 0 log | Log Kill […] Lactic Acid (E. coli SAC-2; Niaproof 08 0.02 % wt./wt. in […] lactic acid, 15 seconds): 0.575 log | Enhancement Factor (log10 kill with lactic acid and surfactant divided by log10 kill with lactic acid only) (E. coli SAC-2; [2]): 2.37 | Log Kill (E. coli SAC-2; Niaproof 08 0.02 wt./wt. % in 2.5 wt. % lactic acid, 15 seconds, room temperature): 1.08 log and 1.080 log | Log Kill […] Lactic Acid (E. coli SAC-2; Niaproof 08 0.04 % wt./wt. in […] lactic acid, 15 seconds): 1.060 log | Enhancement Factor (log10 kill with lactic acid and surfactant divided by log10 kill with lactic acid only) (E. coli SAC-2; [3]): 3.82 | Log Kill (E. coli SAC-2; Niaproof 08 0.04 wt./wt. % in 2.5 wt. % lactic acid, 15 seconds, room temperature): 1.74 log and 1.740 log | Log Kill […] Lactic Acid (E. coli SAC-2; Niaproof 08 0.06 % wt./wt. in […] lactic acid, 15 seconds): 1.011 log | Log Kill […] Lactic Acid (E. coli SAC-2; Niaproof 08 0.08 % wt./wt. in […] lactic acid, 15 seconds): 2.110 log | Enhancement Factor (log10 kill with lactic acid and surfactant divided by log10 kill with lactic acid only) (E. coli SAC-2; Niaproof 08 0.08 wt./wt. % in 2.5 wt. % lactic acid): 10.5 | Log Kill (E. coli SAC-2; Niaproof 08 0.08 wt./wt. % in 2.5 wt. % lactic acid, 15 seconds, room temperature): 4.8 log and 4.800 log | Log Kill […] Lactic Acid (E. coli SAC-2; Niaproof 08 0.10 % wt./wt. in […] lactic acid, 15 seconds): 2.770 log | Log Kill […] Lactic Acid (E. coli SAC-2; Niaproof 08 0.12 % wt./wt. in […] lactic acid, 15 seconds): 2.820 log | Enhancement Factor (log10 kill with lactic acid and surfactant divided by log10 kill with lactic acid only) (E. coli SAC-2; Niaproof 08 0.12 wt./wt. % in 2.5 wt. % lactic acid): 13.4 | Log Kill (E. coli SAC-2; Niaproof 08 0.12 wt./wt. % in 2.5 wt. % lactic acid, 15 seconds, room temperature): 6.1 log and 6.100 log | Enhancement Factor (log10 kill with lactic acid and surfactant divided by log10 kill with lactic acid only) (E. coli SAC-2; Niaproof 08 0.16 wt./wt. % in 2.5 wt. % lactic acid): 13.4 | Log Kill (E. coli SAC-2; Niaproof 08 0.16 wt./wt. % in 2.5 wt. % lactic acid, 15 seconds, room temperature): 6.1 log and 6.100 log | Log Kill […] Lactic Acid (E. coli SAC-2; Niaproof 08 0.20 % wt./wt. in […] lactic acid, 15 seconds): 5.980 log | Enhancement Factor (log10 kill with lactic acid and surfactant divided by log10 kill with lactic acid only) (E. coli SAC-2; Niaproof 08 0.20 wt./wt. % in 2.5 wt. % lactic acid): 13.4 | Log Kill (E. coli SAC-2; Niaproof 08 0.20 wt./wt. % in 2.5 wt. % lactic acid, 15 seconds, room temperature): ~6 log and 6.1 log and 6.100 log | Log Kill […] Lactic Acid (E. coli SAC-2; Niaproof 08 […] wt./wt. in […] lactic acid, 15 seconds): 5.980 log | elimination of detectable E. coli (E. coli SAC-2; Niaproof 08 above about 0.2 wt./wt. % in 2.5 wt. % lactic acid, 15 seconds, room temperature): complete elimination of detectable E. coli | cfu per ml (E. coli SAC-2; Niaproof 08 alone 0.02 % wt./wt., no lactic acid, 15 seconds): 4.05E+07 cfu per ml | cfu per ml (E. coli SAC-2; Niaproof 08 alone 0.06 % wt./wt., no lactic acid, 15 seconds): 3.63E+07 cfu per ml | cfu per ml (E. coli SAC-2; Niaproof 08 alone 0.14 % wt./wt., no lactic acid, 15 seconds): 4.25E+07 cfu per ml | cfu per ml (E. coli SAC-2; Niaproof 08 alone 0.20 % wt./wt., no lactic acid, 15 seconds): 4.15E+07 cfu per ml | antimicrobial effect of Niaproof 08 by itself (E. coli SAC-2; no lactic acid, up to 0.20 % wt./wt., 15 seconds): no antimicrobial effect | Log Kill (Lactic Acid + Surfactant) (E. coli SAC-2; surfactant 0.2% in 2.5% lactic acid, 15 seconds, 74 to 80 degrees F.): 4.08 log | Log Kill (Lactic Acid + Surfactant) (E. coli ATCC 12435; 0.1% Niaproof 08 in 2.5% lactic acid, 15 seconds, 83 degrees F.): 6.54 log | Enhancement Factor (E. coli ATCC 12435; [2]): 1.52 | Log Kill (E. coli ATCC 12435; [2]): 3.469 log | Enhancement Factor (E. coli ATCC 12435; [3]): 1.43 | Log Kill (E. coli ATCC 12435; [3]): 3.259 log | Enhancement Factor (E. coli ATCC 12435; [4]): 2.79 | Log Kill (E. coli ATCC 12435; [4]): 6.367 log | Enhancement Factor (E. coli ATCC 12435; [5]): 2.86 | Log Kill (E. coli ATCC 12435; [5]): 6.539 log | cfu per ml (E. coli ATCC 12435; Niaproof 08 alone 0.02 % wt./wt.): 3.41E+07 cfu per ml | cfu per ml (E. coli ATCC 12435; Niaproof 08 alone 0.06 % wt./wt.): 3.43E+07 cfu per ml | cfu per ml (E. coli ATCC 12435; Niaproof 08 alone 0.14 % wt./wt.): 3.56E+07 cfu per ml | cfu per ml (E. coli ATCC 12435; Niaproof 08 alone 0.20 % wt./wt.): 3.04E+07 cfu per ml | Description/Observation (E. coli ATCC 43888; Niaproof 08 0.02 % wt./wt. in 2.5 wt. % lactic acid): Extensive bacterial growth. | Description/Observation (E. coli ATCC 43888; Niaproof 08 0.04 % wt./wt. in 2.5 wt. % lactic acid): No bacterial growth. | Description/Observation (E. coli ATCC 43888; Niaproof 08 0.06 % wt./wt. in 2.5 wt. % lactic acid): No bacterial growth. | Description/Observation (E. coli ATCC 43888; Niaproof 08 0.08 % wt./wt. in 2.5 wt. % lactic acid): No bacterial growth. | Description/Observation (E. coli ATCC 43888; Niaproof 08 0.10 % wt./wt. in 2.5 wt. % lactic acid): No bacterial growth. | concentration of surfactant at which all bacteria added were killed (E. coli ATCC 43888; in 2.5 wt. % lactic acid): ≥ 0.04%
